# Biological target: c-MET (Homo sapiens, UniProt P08581)
# Experiment: MET cell mechanistic assay (MKN45), phosphorylated MET ELISA
# Type: cell-based
# Conditions: MKN45 cell line; inhibition of phosphorylated MET; 4 hours incubation; at least duplicate experiments; read-out: MET mech IC50
# Experimental: The cellular activity of the compounds of the present invention against c-MET may be determined by the following procedure. MKN45 cells were plated in Falcon 3072 96-well plates in growth media (RPMI, 10% FBS, 1% L-glutamine) at a density of 5000 cells/well and incubated at 37° C., 5% CO2 overnight. The following day, one-tenth volume of a 10× concentration of compounds was added to the wells in a 6-point dilution series. The dilutions series was composed of an initial 1:5 dilution in DMSO, followed by a 1:10 dilution in growth media, for a final DMSO concentration on cells of 0.5%. Control wells were treated with 0.5% DMSO. The typical range of dilution was 10 μM to 3 nM. Once compound was added to the cells, plates were incubated for 4 hours at 37° C., 5% CO2. Plates were then washed in PBS, and lysed in triton-based lysis buffer. Lysates were transferred to a precoated capture plate made by Biosource (Cat # KHO0281). The phosphorylated MET levels were measured by incubating with a rabbit polyclonal antibody against phosphorylated MET ([pYpYpY1230/1234/1235]) followed by an anti-rabbit antibody conjugated to HRP. Signal was measured on a Wallac Victor plate reader at 450 nm. The DMSO signal of the control wells was defined as 100% and the percent of inhibition of phosphorylated MET was expressed as percent of control. IC50 values were determined from the percent of control data using a standard four-parameter model.
# The IC50 values of exemplary compounds of the present invention determined in a MET cell mechanistic assay using the MKN45 cell line according to the procedures described herein in at least duplicate experiments are abbreviated as follows and are shown in Table 1: A, IC50≦0.05 μM; B, 0.05 μM<IC50≦0.2 μM; C, 0.2 μM<IC50≦1 μM; D, IC50>1 μM; ND, not determined. The Example # of Table 1 corresponds to the compound example number as illustrated in the Examples section.
# Treatment of this cell line with a selective c-MET inhibitor led to induction of apoptosis and inhibition of proliferation, whereas non-MET-amplified cell lines were not affected [Smolen et al., Proc. Natl. Acad. Sci. USA, 103(7):2316-2321 (2006)]. This cell line is thus “driven” by c-MET, and antiproliferative effects correlate very well with the inhibition of c-MET phosphorylation so that the cell proliferation IC50, values can be used as surrogate for the c-MET cell mechanistic IC50, values. Under the assay conditions described herein, the IC50 values correlate nearly 1:1.
# c-MET, sequence (P08581 25-1390): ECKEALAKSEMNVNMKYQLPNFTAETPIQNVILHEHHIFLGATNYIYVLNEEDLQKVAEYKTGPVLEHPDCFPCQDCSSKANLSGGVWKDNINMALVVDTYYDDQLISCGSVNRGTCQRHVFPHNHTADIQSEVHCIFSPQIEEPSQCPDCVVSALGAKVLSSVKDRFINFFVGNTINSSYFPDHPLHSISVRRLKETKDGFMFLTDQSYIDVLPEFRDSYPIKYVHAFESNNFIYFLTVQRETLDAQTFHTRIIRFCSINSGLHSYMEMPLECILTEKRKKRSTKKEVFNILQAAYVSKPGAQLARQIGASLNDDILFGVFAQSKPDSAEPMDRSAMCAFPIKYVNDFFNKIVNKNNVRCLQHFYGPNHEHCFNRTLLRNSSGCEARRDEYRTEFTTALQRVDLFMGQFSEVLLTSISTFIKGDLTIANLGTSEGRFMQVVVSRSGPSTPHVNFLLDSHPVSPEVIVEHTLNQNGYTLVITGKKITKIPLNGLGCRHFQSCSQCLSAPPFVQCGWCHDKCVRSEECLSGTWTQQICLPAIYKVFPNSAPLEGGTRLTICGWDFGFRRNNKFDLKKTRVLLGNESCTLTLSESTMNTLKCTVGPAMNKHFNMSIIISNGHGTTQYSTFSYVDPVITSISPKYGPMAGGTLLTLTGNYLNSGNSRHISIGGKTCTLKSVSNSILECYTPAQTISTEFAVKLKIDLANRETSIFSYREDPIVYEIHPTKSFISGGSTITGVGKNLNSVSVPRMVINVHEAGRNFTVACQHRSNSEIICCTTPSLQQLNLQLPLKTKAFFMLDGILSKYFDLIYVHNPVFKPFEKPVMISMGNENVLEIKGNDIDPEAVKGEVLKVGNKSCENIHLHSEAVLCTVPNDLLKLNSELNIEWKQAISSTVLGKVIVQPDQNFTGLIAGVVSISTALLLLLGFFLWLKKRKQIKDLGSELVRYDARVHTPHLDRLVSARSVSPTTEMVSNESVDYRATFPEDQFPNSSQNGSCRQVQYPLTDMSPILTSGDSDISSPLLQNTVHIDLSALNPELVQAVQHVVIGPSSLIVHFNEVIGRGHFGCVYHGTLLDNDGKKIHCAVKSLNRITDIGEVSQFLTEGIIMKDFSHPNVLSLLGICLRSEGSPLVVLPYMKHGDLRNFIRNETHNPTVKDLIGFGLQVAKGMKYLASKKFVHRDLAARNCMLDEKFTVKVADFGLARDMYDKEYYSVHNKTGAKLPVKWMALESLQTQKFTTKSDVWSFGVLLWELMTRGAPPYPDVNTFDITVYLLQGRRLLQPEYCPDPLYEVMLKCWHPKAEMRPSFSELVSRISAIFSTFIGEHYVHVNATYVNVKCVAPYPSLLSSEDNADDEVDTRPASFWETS
row,Structure (SMILES),IC50
1,"COc1ccc(F)c(Cl)c1[C@@H](C)c1c[nH]c2ncc(-c3cnn([C@H]4CC[C@H](O)CC4)c3C)cc12 [Example 27, trans-4-(4-{3-[(1S)-1-(2-Chloro-3-fluoro-6-methoxyphenyl)ethyl]-1H-pyrrolo[2,3-b]pyridin-5-yl}-5-methyl-1H-pyrazol-1-yl)cyclohexanol]",≤ 50 nM
2,"Cc1c(-c2cnc3[nH]cc([C@H](C)c4c(OC(F)F)ccc(F)c4Cl)c3c2)cnn1[C@H]1CC[C@H](O)CC1 [Example 74, trans-4-[4-(3-{(1S)-1-[2-Chloro-6-(difluoromethoxy)-3-fluorophenyl]ethyl}-1H-pyrrolo[2,3-b]pyridin-5-yl)-5-methyl-1H-pyrazol-1-yl]cyclohexanol]",≤ 50 nM
3,"Cc1c(-c2cnc3[nH]cc([C@H](C)c4c(OC(F)F)ccc(F)c4Cl)c3c2)cnn1C1CCNCC1 [Example 96, 3-{(1S)-1-[2-Chloro-6-(difluoromethoxy)-3-fluorophenyl]ethyl}-5-[5-methyl-1-(piperidin-4-yl)-1H-pyrazol-4-yl]-1H-pyrrolo[2,3-b]pyridine]",≤ 50 nM
4,"CC(=O)N1CCC(n2ncc(-c3cnc4[nH]cc([C@H](C)c5c(OC(F)F)ccc(F)c5Cl)c4c3)c2C)CC1 [Example 97, 1-{4-[4-(3-{(1S)-1-[2-Chloro-6-(difluoromethoxy)-3-fluorophenyl]ethyl}-1H-pyrrolo[2,3-b]pyridin-5-yl)-5-methyl-1H-pyrazol-1-yl]piperidin-1-yl}ethanone]",≤ 50 nM
5,"COc1ccc(F)c(Cl)c1[C@@H](C)c1c[nH]c2ncc(-c3cn([C@H]4CC[C@H](O)CC4)nc3OC)cc12 [Example 99, trans-4-(4-{3-[(1S)-1-(2-chloro-3-fluoro-6-methoxyphenyl)ethyl]-1H-pyrrolo[2,3-b]pyridin-5-yl}-3-methoxy-1H-pyrazol-1-yl)cyclohexanol]",≤ 50 nM
6,"COc1nn([C@H]2CC[C@H](O)CC2)cc1-c1cnc2[nH]cc([C@H](C)c3c(OC(F)F)ccc(F)c3Cl)c2c1 [Example 100, trans-4-[4-(3-{(1S)-1-[2-chloro-6-(difluoromethoxy)-3-fluorophenyl]ethyl}-1H-pyrrolo[2,3-b]pyridin-5-yl)-3-methoxy-1H-pyrazol-1-yl]cyclohexanol]",≤ 50 nM
7,"CCOc1ccc(F)c(Cl)c1[C@@H](C)c1c[nH]c2ncc(-c3cnn([C@H]4CC[C@H](O)CC4)c3C)cc12 [Example 103, trans-4-(4-{3-[(1S)-1-(2-Chloro-6-ethoxy-3-fluorophenyl)ethyl]-1H-pyrrolo[2,3-b]pyridin-5-yl}-5-methyl-1H-pyrazol-1-yl)cyclohexanol]",≤ 50 nM
8,"COc1ccc(F)c(Cl)c1[C@@H](CF)c1c[nH]c2ncc(-c3cnn([C@H]4CC[C@H](O)CC4)c3C)cc12 [Example 121, trans-4-(4-{3-[(1S)-1-(2-Chloro-3-fluoro-6-methoxyphenyl)-2-fluoroethyl]-1H-pyrrolo[2,3-b]pyridin-5-yl}-5-methyl-1H-pyrazol-1-yl)cyclohexanol]",≤ 50 nM
9,"Cc1c(-c2cnc3[nH]cc([C@@H](CF)c4c(OC(F)F)ccc(F)c4Cl)c3c2)cnn1[C@H]1CC[C@H](O)CC1 [Example 123, trans-4-[4-(3-{(1R)-1-[2-chloro-6-(difluoromethoxy)-3-fluorophenyl]-2-fluoroethyl}-1H-pyrrolo[2,3-b]pyridin-5-yl)-5-methyl-1H-pyrazol-1-yl]cyclohexanol]",200 to 1000 nM
10,"Cc1c(-c2cnc3[nH]cc([C@H](CF)c4c(OC(F)F)ccc(F)c4Cl)c3c2)cnn1[C@H]1CC[C@H](O)CC1 [Example 124, trans-4-[4-(3-{(1S)-1-[2-chloro-6-(difluoromethoxy)-3-fluorophenyl]-2-fluoroethyl}-1H-pyrrolo[2,3-b]pyridin-5-yl)-5-methyl-1H-pyrazol-1-yl]cyclohexanol]",≤ 50 nM
11,"C[C@H](c1c(OC(F)F)ccc(F)c1Cl)c1c[nH]c2ncc(-c3cnc(N4CCC(O)CC4)n3C)cc12 [Example 125, 1-[5-(3-{(1S)-1-[2-Chloro-6-(difluoromethoxy)-3-fluorophenyl]ethyl}-1H-pyrrolo[2,3-b]pyridin-5-yl)-1-methyl-1H-imidazol-2-yl]piperidin-4-ol]",≤ 50 nM
12,"C[C@H](c1c(OC(F)F)ccc(F)c1Cl)c1c[nH]c2ncc(-c3cnc([C@H]4CC[C@H](O)CC4)n3C)cc12 [Example 126, trans-4-[5-(3-{(1S)-1-[2-Chloro-6-(difluoromethoxy)-3-fluorophenyl]ethyl}-1H-pyrrolo[2,3-b]pyridin-5-yl)-1-methyl-1H-imidazol-2-yl]cyclohexanol]",≤ 50 nM

# Reference: patent US8445510B2, “Fused bicyclic kinase inhibitors” (OSI Pharmaceuticals, LLC, priority 2011, dated 2013)
